Assay results reported in article PMC12096669, “Structural isomerisation affects the antitubercular activity of adamantyl-isoxyl adducts” (Journal of Enzyme Inhibition and Medicinal Chemistry, 2025).
Converted amounts (≈) assume the structure as drawn. Where two headings read alike, the source gives them in different places.

Assays:
S. aureus NCTC 2981 = assay: Non-mycobacterial REMA assay; assay type: cell-based; details: Staphylococcus aureus, NCTC2981, read-out: Minimum inhibitory concentration 95%
[1] = test system: AC10 hybrid adult ventricular cardiomyocytes; assay: MTS cytotoxicity assay, cardiomyocytes; assay type: cell-based; details: Homo sapiens, AC10 cardiac, 96 h, read-out: MTS percentage survival @ 100 µM
E. faecalis NCTC 775 = assay: Non-mycobacterial REMA assay; assay type: cell-based; details: Enterococcus faecalis, NCTC775, read-out: Minimum inhibitory concentration 95%
S. agalactiae NCTC 8181 = assay: Non-mycobacterial REMA assay; assay type: cell-based; details: Streptococcus agalactiae, NCTC8181, read-out: Minimum inhibitory concentration 95%
B. cereus NCTC 7464 = assay: Non-mycobacterial REMA assay; assay type: cell-based; details: Bacillus cereus, NCTC7464, read-out: Minimum inhibitory concentration 95%
Mtb mc^27902 pMV261 [2] = assay type: cell-based, Mycobacterium tuberculosis
S. pyogenes NCTC 8198 = assay: Non-mycobacterial REMA assay; assay type: cell-based; details: Streptococcus pyogenes, NCTC8198, read-out: Minimum inhibitory concentration 95%
[3] = test system: RAW264.7 murine macrophage cells; assay: cells; assay type: cell-based; details: for viability at 100 µM: RAW264.7, 96 h, read-out: MTS percentage survival @ 100 µM
K. pneumoniae NCTC 9633 = assay: Non-mycobacterial REMA assay; assay type: cell-based; details: Klebsiella pneumoniae, NCTC9633, read-out: Minimum inhibitory concentration 95%
Mtb mc^27902 pMV261 [4] = assay type: cell-based, Mycobacterium tuberculosis; details: in the presence of glucose; 37 °C, 30 min
E. cloacae NCTC 10005 = assay: Non-mycobacterial REMA assay; assay type: cell-based; details: Enterobacter cloacae, NCTC10005, read-out: Minimum inhibitory concentration 95%
A. baumannii NCTC 12156 = assay: Non-mycobacterial REMA assay; assay type: cell-based; details: Acinetobacter baumannii, NCTC12156, read-out: Minimum inhibitory concentration 95%
S. enterica NCTC 6754 = assay: Non-mycobacterial REMA assay; assay type: cell-based; details: Salmonella enterica, NCTC6754, read-out: Minimum inhibitory concentration 95%
Method: (§1) Bacterial minimum inhibition concentrations (MIC) were determined using the Resazurin Microtiter Assay (REMA) method according to Palomino et al.[28] Stock solutions of the tested compounds were prepared in sterile dimethyl sulfoxide (DMSO), then diluted in 7H9OPALPen^1Cyc^10(Kan^25) to obtain a final drug concentration range of 32–0.032 μg/mL. A suspension of the test Mycobacterium was cultured in 7H9OPALPen^1Cyc^10(Kan^25) containing 0.05% v/v Tween^80 for one week at 37 °C, 5% CO2. The bacterial suspension was adjusted to 0.5 McFarland and diluted in 7H9OPALPen^1Cyc^10(Kan^25) 1:25. 100 μL of the inoculum was added to each well of a 96-well microplate together with 100 μL of the compound titration. The plate was incubated at 37 °C, 5% CO2. After 5 days, 10.5 μL 0.1% (w/v) sterile resazurin (solubilised in sterile PBS containing 0.02% v/v Tween^80) was added. Reduced resazurin was detected using fluorescence (Ex/Em 530/590 nm) in a FLUOstar Optima, BMG Labtech. All titre measurements were plotted in SigmaPlot™ and 4-parameter logistic (4PL) model regressions conducted. The relative MIC95 of each curve was calculated and averaged (Table 1). Testing was performed in duplicate with two independent biological repeats. […] Though, for these cultures, dilutions were performed at 1:125 prior to inoculation of the plate and incubation for 4 h (Supplementary Table 3). Known antitubercular agents used in this study were rifampicin (RIF), isoniazid (INH), ISO, EMB, ethionamide (ETH), linezolid (LZD), delamanid (DEL) and moxifloxacin (MOX).

E. coli K12 = assay: Non-mycobacterial REMA assay; assay type: cell-based; details: Escherichia coli, read-out: Minimum inhibitory concentration 95%
Method: as §1

[5] = test system: HepG2 human liver cancer cell line; assay: MTS cytotoxicity assay, liver cells; assay type: cell-based; details: 96 h, read-out: MTS percentage survival @ 100 µM
E. faecium NCTC 7171 = assay: Non-mycobacterial REMA assay; assay type: cell-based; details: Enterococcus faecium, NCTC7171, read-out: Minimum inhibitory concentration 95%
Mtb mc^27902 pMV261 [6] = assay: microbe, parasite or virus in culture; assay type: cell-based; details: Mycobacterium tuberculosis, read-out: Mtb MIC95
P. aeruginosa DSM 19880 = assay: Non-mycobacterial REMA assay; assay type: cell-based; details: Pseudomonas aeruginosa, DSM19880, read-out: Minimum inhibitory concentration 95%
[7] = Mus musculus, RAW264.7 macrophage, 100 µM, 96 h

| SMILES | MIC (S. aureus NCTC 2981) | viability at 100 µM [1] | MIC (E. faecalis NCTC 775) | MIC (S. agalactiae NCTC 8181) | MIC (B. cereus NCTC 7464) | MIC (S. pyogenes NCTC 8198) | viability at 100 µM [3, 7] | MIC (K. pneumoniae NCTC 9633) | MIC (E. cloacae NCTC 10005) | MIC (A. baumannii NCTC 12156) | MIC (S. enterica NCTC 6754) | MIC (E. coli K12) | viability at 100 µM [5] | MIC (E. faecium NCTC 7171) | MIC (Mtb mc^27902 pMV261 [6]; mc^27902 pMV261, REMA) | MIC (P. aeruginosa DSM 19880) | further results |
| --- | --- | --- | --- | --- | --- | --- | --- | --- | --- | --- | --- | --- | --- | --- | --- | --- | --- |
| CC(C)CCOc1ccc(NC(=S)NC23CC4CC(CC(C4)C2)C3)cc1 [Ad-1-ISO, 1-((3s,5s,7s)-adamantan-1-yl)-3–(4-(isopentyloxy)phenyl)thiourea] | > 32 µg/mL | 55 ± 13.2% | > 32 µg/mL | > 32 µg/mL | > 32 µg/mL | > 32 µg/mL | 73.8 ± 7.5% | > 32 µg/mL | > 32 µg/mL | > 32 µg/mL | > 32 µg/mL | > 32 µg/mL | 16.1 ± 7.2% | > 32 µg/mL | 1.08 µg/mL (≈ 2.9 µM) | > 32 µg/mL | effect on mycolic acid biosynthesis (FAMEs/MAMEs, TLC/autoradiography) (Mtb mc^27902 pMV261 [2]): Depletion of mycolates into the cell wall was only observed at the highest concentrations tested; TMM levels (TLC) (Mtb mc^27902 pMV261 [2]; at the highest concentrations, […]): slight increase in the TMM levels; IC50 ([3]; Mus musculus, RAW264.7 macrophages, 0 to 100 µM, read-out: IC50 (cell viability, MTS assay)): > 100 µM; selectivity index (SI) ([3]; from RAW264.7 IC50 and Mtb MIC95): > 100; efflux of EtBr (Mtb mc^27902 pMV261 [4]): significantly increased the overall efflux of EtBr |
| CC[C@@H](CO)NCCN[C@@H](CC)CO [EMB, Ethambutol] | > 32 µg/mL | 93.7 ± 2.7% | > 32 µg/mL | > 32 µg/mL | > 32 µg/mL | > 32 µg/mL | 88.5 ± 8.6% | > 32 µg/mL | > 32 µg/mL | > 32 µg/mL | > 32 µg/mL | > 32 µg/mL | 95.2 ± 6% | > 32 µg/mL | 1.99 µg/mL (≈ 9.74 µM) | > 32 µg/mL |  |
| CO[C@H]1/C=C/O[C@@]2(C)Oc3c(C)c(O)c4c(O)c(c(/C=N/N5CCN(C)CC5)c(O)c4c3C2=O)NC(=O)/C(C)=C\C=C\[C@H](C)[C@H](O)[C@@H](C)[C@@H](O)[C@@H](C)[C@H](OC(C)=O)[C@@H]1C [RIF, rifampicin] | < 0.0125 µg/mL | 40.7 ± 6.6% | > 12.8 µg/mL | 0.08 µg/mL (≈ 0.0972 µM) | 0.045 µg/mL (≈ 0.0547 µM) | 6.16 µg/mL (≈ 7.48 µM) | 66.3 ± 5% | > 12.8 µg/mL | > 12.8 µg/mL | 1.36 µg/mL (≈ 1.66 µM) | 12.8 µg/mL (≈ 15.5 µM) | 3.03 µg/mL (≈ 3.69 µM) | 47.7 ± 3.2% | 1.73 µg/mL (≈ 2.11 µM) | 0.04 µg/mL (≈ 0.0486 µM) | > 12.8 µg/mL |  |
| CCc1cc(C(N)=S)ccn1 [ETH, ethionamide] | > 32 µg/mL | 90.5 ± 4.7% | > 32 µg/mL | > 32 µg/mL | > 32 µg/mL | > 32 µg/mL |  | > 32 µg/mL | > 32 µg/mL | > 32 µg/mL | > 32 µg/mL | > 32 µg/mL | 92.7 ± 7% | > 32 µg/mL |  | > 32 µg/mL | viability at 100 µM ([3]; Mus musculus): 100 ± 5.6%; MIC (Mtb mc^27902 pMV261 [6]): 1.05 µg/mL (≈ 6.32 µM) |
